Tests used:
Assay type in all cases: cell-based
human TLR7 = molecular target: T1, human TLR7 (Homo sapiens, UniProt Q9NYK1); test: TLR7 inhibition reporter assay (HEK-Blue cells, SEAP reporter, gardiquimod stimulation); conditions: HEK-Blue cells overexpressing human TLR7, SEAP reporter, gardiquimod 7.5 μM
T1 construct: host or cells: HEK-Blue cells (HEK293-derived reporter line)
T1 sequence (Q9NYK1 27-1049): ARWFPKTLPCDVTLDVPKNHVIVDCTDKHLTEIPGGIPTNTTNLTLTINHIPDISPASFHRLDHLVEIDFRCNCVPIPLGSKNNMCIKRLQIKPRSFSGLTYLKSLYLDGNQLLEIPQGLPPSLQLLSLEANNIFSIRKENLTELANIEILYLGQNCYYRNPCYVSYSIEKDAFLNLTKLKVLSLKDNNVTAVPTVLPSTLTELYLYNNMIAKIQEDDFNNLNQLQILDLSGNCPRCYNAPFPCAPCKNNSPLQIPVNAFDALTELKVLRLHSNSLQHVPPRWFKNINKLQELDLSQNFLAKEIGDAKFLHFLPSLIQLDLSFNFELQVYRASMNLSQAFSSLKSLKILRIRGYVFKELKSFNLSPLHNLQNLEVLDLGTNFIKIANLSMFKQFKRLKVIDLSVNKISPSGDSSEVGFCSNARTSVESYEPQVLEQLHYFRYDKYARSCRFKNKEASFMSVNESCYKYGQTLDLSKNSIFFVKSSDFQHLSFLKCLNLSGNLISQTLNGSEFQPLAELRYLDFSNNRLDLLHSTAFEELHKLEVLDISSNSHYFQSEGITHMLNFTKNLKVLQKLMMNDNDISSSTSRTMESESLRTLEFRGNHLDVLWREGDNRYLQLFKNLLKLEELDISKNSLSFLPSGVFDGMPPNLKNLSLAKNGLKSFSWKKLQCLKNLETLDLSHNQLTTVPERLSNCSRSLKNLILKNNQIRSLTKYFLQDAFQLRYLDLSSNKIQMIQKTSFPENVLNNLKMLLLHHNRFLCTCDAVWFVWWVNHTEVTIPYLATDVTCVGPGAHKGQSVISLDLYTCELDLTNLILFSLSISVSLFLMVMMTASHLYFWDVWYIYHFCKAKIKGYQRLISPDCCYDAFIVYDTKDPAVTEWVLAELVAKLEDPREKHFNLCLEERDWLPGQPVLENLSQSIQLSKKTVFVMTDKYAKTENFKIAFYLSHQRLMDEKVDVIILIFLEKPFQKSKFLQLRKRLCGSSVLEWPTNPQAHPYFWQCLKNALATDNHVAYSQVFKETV
Procedure, shortened: (§1)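 Read-out is SEAP activity in HEK-Blue detection medium after 22 h at 37 °C, converted to percent inhibition against agonist-plus-DMSO and reference-inhibitor controls. Cells saw compound (0.05 nM–50 μM, 30 min, room temperature) before gardiquimod 7.5 μM, R848 15.9 μM or ODN2006 5 nM for TLR7, TLR8 and TLR9, respectively.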

human TLR8 = molecular target: T2, human TLR8 (Homo sapiens, UniProt Q9NR97); test: TLR8 inhibition reporter assay (HEK-Blue cells, SEAP reporter, R848 stimulation); conditions: HEK-Blue cells overexpressing human TLR8, SEAP reporter, R848 15.9 μM
T2 construct: host or cells: HEK-Blue cells (HEK293-derived reporter line)
T2 sequence (Q9NR97 27-1041): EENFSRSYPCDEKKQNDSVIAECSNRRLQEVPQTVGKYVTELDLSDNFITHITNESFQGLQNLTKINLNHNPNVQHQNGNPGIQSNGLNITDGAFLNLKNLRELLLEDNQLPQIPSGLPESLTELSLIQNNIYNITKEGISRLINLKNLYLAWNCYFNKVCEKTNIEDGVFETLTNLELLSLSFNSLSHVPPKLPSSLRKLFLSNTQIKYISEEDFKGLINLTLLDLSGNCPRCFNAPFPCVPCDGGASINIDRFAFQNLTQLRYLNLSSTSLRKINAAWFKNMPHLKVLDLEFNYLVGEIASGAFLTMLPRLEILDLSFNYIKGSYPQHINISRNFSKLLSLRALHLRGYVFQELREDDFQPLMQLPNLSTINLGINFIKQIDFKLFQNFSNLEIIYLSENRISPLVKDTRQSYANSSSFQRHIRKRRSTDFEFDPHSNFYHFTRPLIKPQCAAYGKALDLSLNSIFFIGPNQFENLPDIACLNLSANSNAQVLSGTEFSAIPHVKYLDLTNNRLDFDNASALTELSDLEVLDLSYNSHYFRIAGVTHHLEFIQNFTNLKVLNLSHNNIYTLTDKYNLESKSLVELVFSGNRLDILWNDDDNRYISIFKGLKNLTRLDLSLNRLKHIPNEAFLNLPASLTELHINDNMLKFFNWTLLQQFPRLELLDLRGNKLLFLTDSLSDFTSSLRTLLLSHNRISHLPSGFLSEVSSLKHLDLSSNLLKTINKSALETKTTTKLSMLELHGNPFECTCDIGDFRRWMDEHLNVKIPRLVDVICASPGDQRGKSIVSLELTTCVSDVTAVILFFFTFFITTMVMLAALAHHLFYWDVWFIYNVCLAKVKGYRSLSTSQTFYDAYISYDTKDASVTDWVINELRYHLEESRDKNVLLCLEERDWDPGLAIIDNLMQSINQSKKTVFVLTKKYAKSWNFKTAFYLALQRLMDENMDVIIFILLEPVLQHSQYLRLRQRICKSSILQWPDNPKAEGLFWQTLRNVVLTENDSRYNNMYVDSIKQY
Procedure, shortened: as §1

human TLR9 = molecular target: T3, human TLR9 (Homo sapiens, UniProt Q9NR96); test: TLR9 inhibition reporter assay (HEK-Blue cells, SEAP reporter, ODN2006 stimulation); conditions: HEK-Blue cells overexpressing human TLR9, SEAP reporter, ODN2006 5 nM
T3 construct: host or cells: HEK-Blue cells (HEK293-derived reporter line)
T3 sequence (Q9NR96 26-1032): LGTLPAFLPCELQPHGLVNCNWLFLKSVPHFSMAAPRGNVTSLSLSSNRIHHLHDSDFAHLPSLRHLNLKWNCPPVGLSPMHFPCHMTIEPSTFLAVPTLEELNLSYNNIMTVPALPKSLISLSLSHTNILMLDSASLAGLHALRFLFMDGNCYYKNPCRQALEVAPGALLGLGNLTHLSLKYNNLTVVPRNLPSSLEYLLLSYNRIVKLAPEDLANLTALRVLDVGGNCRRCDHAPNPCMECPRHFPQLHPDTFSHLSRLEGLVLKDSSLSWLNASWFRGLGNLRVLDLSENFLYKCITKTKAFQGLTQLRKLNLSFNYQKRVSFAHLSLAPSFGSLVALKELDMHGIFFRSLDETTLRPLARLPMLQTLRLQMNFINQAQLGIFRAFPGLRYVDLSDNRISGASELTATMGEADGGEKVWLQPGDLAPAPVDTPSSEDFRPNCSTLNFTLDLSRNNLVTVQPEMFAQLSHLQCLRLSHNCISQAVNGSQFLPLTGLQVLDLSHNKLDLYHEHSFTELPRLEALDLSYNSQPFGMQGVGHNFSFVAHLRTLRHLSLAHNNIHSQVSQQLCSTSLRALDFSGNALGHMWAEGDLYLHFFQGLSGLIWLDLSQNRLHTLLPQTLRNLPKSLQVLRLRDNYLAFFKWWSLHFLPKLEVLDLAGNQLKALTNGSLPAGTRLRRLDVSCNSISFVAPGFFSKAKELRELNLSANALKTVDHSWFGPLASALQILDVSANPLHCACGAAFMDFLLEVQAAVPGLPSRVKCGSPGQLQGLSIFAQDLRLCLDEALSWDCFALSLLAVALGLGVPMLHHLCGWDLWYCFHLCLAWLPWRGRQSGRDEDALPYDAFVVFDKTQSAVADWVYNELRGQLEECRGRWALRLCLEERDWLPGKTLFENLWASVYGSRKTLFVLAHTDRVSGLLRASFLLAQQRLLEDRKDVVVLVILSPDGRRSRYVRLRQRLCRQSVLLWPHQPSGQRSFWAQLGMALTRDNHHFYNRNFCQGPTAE
Procedure, shortened: as §1

For `Cc1nnn2ccc(-c3[nH]c4ccc(C5CCN(Cc6ncn(C)n6)CC5)cc4c3C(C)C)cc12` [Example 889, 5-(3-isopropyl-5-(1-((1-methyl-1H-1,2,4-triazol-3-yl)methyl)piperidin-4-yl)-1H-indol-2-yl)-3-methyl-[1,2,3]triazolo[1,5-a]pyridine], the IC50 (human TLR7) was < 100 nM, the IC50 (human TLR8) was < 100 nM and the IC50 (human TLR9) was 1000 to 50000 nM.

`CNCCN1CCC(c2ccc3[nH]c(-c4ccc5ncnn5n4)c(C)c3c2)CC1` [Example 651, 2-(4-(2-([1,2,4]triazolo[1,5-b]pyridazin-6-yl)-3-methyl-1H-indol-5-yl)piperidin-1-yl)-N-methylethan-1-amine] was tested, and the IC50 (human TLR7) was < 100 nM, the IC50 (human TLR8) was < 100 nM and the IC50 (human TLR9) was < 100 nM.

In the case of `CCc1c(-c2cnc3cc(C)cnn23)[nH]c2ccc(C3CCNCC3)cc12` [Example 108, 3-(3-ethyl-5-(piperidin-4-yl)-1H-indol-2-yl)-7-methylimidazo[1,2-b]pyridazine], the IC50 (human TLR7) is reported as > 50000 nM, the IC50 (human TLR8) is reported as 1000 to 50000 nM and the IC50 (human TLR9) is reported as 1000 to 50000 nM.

Work on `CC(C)c1c(-c2ccnc3c2NC(=O)CO3)[nH]c2ccc(C3CCNCC3)cc12` [Example 68, 8-(3-isopropyl-5-(piperidin-4-yl)-1H-indol-2-yl)-1H-pyrido[2,3-b][1,4]oxazin-2(3H)-one] yielded an IC50 (human TLR7) of 1000 to 50000 nM, an IC50 (human TLR8) of 1000 to 50000 nM and an IC50 (human TLR9) of 1000 to 50000 nM.

With `Cc1cc(-c2[nH]c3ccc(C4CCN(CC#N)CC4)cc3c2C(C)C)cc2cnnn12` [Example 964, 2-(4-(3-isopropyl-2-(7-methyl-[1,2,3]triazolo[1,5-a]pyridin-5-yl)-1H-indol-5-yl)piperidin-1-yl)acetonitrile] the IC50 (human TLR7) was < 100 nM, the IC50 (human TLR8) was < 100 nM and the IC50 (human TLR9) was 100 to 1000 nM.

`CC(C)c1c(-c2cnc3c(cnn3C)c2)[nH]c2ccc(C3CCN(CC(=O)N(C)C)CC3)cc12` [Example 367, 2-(4-(3-isopropyl-2-(1-methyl-1H-pyrazolo[3,4-b]pyridin-5-yl)-1H-indol-5-yl)piperidin-1-yl)-N,N-dimethylacetamide] was tested, and the IC50 (human TLR7) was < 100 nM, the IC50 (human TLR8) was < 100 nM and the IC50 (human TLR9) was 1000 to 50000 nM.

For `Cc1nc2ccc(-c3[nH]c4ccc(C5CCNCC5)cc4c3C(C)C)cc2o1` [Example 6, 6-(3-isopropyl-5-(piperidin-4-yl)-1H-indol-2-yl)-2-methylbenzo[d]oxazole], the IC50 (human TLR7) was < 100 nM, the IC50 (human TLR8) was 100 to 1000 nM and the IC50 (human TLR9) was 1000 to 50000 nM.

For `CC(C)c1c(-c2ccc3nccn3c2)[nH]c2ccc(C3CCN(CC(=O)NCC(F)(F)F)CC3)cc12` [Example 401, 2-(4-(2-(imidazo[1,2-a]pyridin-6-yl)-3-isopropyl-1H-indol-5-yl)piperidin-1-yl)-N-(2,2,2-trifluoroethyl)acetamide], the IC50 (human TLR7) was 100 to 1000 nM, the IC50 (human TLR8) was 100 to 1000 nM and the IC50 (human TLR9) was 1000 to 50000 nM.

For `CC(C)c1c(-c2ccc3onc(N)c3c2)[nH]c2ccc(C3CCNCC3)cc12` [Example 7, 5-(3-isopropyl-5-(piperidin-4-yl)-1H-indol-2-yl)benzo[d]isoxazol-3-amine], the IC50 (human TLR7) was < 100 nM, the IC50 (human TLR8) was < 100 nM and the IC50 (human TLR9) was 100 to 1000 nM.

`Cc1cc(-c2[nH]c3ccc(C4CCN(C5CCOCC5)CC4)cc3c2C(C)C)cn2nnnc12` [Example 698, 6-(3-isopropyl-5-(1-(tetrahydro-2H-pyran-4-yl)piperidin-4-yl)-1H-indol-2-yl)-8-methyltetrazolo[1,5-a]pyridine] was tested, and the IC50 (human TLR7) was < 100 nM, the IC50 (human TLR8) was < 100 nM and the IC50 (human TLR9) was 1000 to 50000 nM.

With `Cc1cc(-c2[nH]c3ccc(C4CCN(C(=O)[C@@H]5C[C@@H](O)CN5)CC4)cc3c2C(C)C)cc2ncnn12` [Example 537, ((2S,4R)-4-hydroxypyrrolidin-2-yl)(4-(3-isopropyl-2-(5-methyl-[1,2,4]triazolo[1,5-a]pyridin-7-yl)-1H-indol-5-yl)piperidin-1-yl)methanone] the IC50 (human TLR7) was < 100 nM, the IC50 (human TLR8) was < 100 nM and the IC50 (human TLR9) was 1000 to 50000 nM.

`Cc1c(-c2[nH]c3ccc(C4CCN(C(=O)CN(C)C)CC4)cc3c2C(C)C)c2cccnc2n1C` [Example 459, 1-(4-(2-(1,2-dimethyl-1H-pyrrolo[2,3-b]pyridin-3-yl)-3-isopropyl-1H-indol-5-yl)piperidin-1-yl)-2-(dimethylamino)ethan-1-one] was tested, and the IC50 (human TLR7) was < 100 nM, the IC50 (human TLR8) was < 100 nM and the IC50 (human TLR9) was 1000 to 50000 nM.
